Laboratory results taken from patent US10160867B2, “Benzoxaborole-containing coating resistant to cellulose-supportable fungus” (THE PENN STATE RESEARCH FOUNDATION, priority 2015, dated 2018).
Converted amounts (≈) assume the structure as drawn.

How the values were obtained:
Format in all cases: cell-based
Aspergillus fumigatus = assay: 3 day MIC, broth microdilution in 25% PDB; conditions: 72 h
Experimental: Stock solutions (concentrations of between 4,000 μg/mL to 10,000 μg/mL; stored at −18° C.) of the above antifungals were prepared in dimethyl sulfoxide (DMSO). The stock solutions were further diluted into sterile 25% potato dextrose broth (PDB) so that the diluted solutions could be used for the antifungal susceptibility studies. This way, a typical microdilution study would reach a final ratio of about 0.5-2% v/v of DMSO in 25% PDB.
Spore inocula were prepared in sterile distilled water with 0.1% Tween® 20 (a polysorbate surfactant), and a hemocytometer was used to determine the spore density. Typically, the spore inoculum was prepared fresh prior to each study, and the inoculum was appropriately diluted to a final concentration of 0.4-1×10^5 spores/mL or colony-forming unit (CFU)/mL in each study. The spore suspension can be stored in a refrigerator at 4° C. for up to one week.
The minimal inhibitory concentrations (MICs) for individual antifungal agents were determined by following a modified broth microdilution protocol CLSI (Clinical and Laboratory Standards Institute) M38-A2 [Clinical and Laboratory Standards Institute (2008) Reference method for broth dilution antifungal susceptibility testing of filamentous fungi—2nd edition: Approved Standard M38-A2, CLSI, Wayne, Pa.] where 25% potato dextrose broth (PDB) was used as the medium. The studies were performed in flat bottom, 96-well microtiter plates (Greiner Bio-One, Frickenhausen, Germany).
Plates sealed with clear polyester film (VWR, Radnor, Pa.) were incubated at a temperature of about 25° C. The progress of fungal growth was monitored at 48 hours and 72 hours.

Stachybotrys chartarum = assay: Fungus resistance test for painted surfaces containing antifungal additives (defacement rating); set-up: key: 10 = no defacement, 0 = completely defaced; conditions: +100 μg/mL in Olympic Home paint
Experimental: (§1) A Defacement Rating is measured by estimating the percentage of surface defacement with 10 being no defacement and 0 begin completely defaced.
(§2) This test was used to evaluate the resistance of paint films containing antifungal additives to surface fungal growth.
(§3) Olympic® Home interior flat latex paint (PPG Industries, Pittsburgh, Pa.) and Valspar® QuikHide White flat interior paint (Valspar Corporation, Minneapolis, Minn.) were used for all studies unless otherwise noted. Stock solutions of the antifungal additives of interest were prepared in reagent grade dimethyl sulfoxide (DMSO; Alfa Aesar, Ward Hill, Mass.). Additives were spiked (by adding appropriate amounts of the antifungal stock solutions) into the liquid paint at specified concentrations. Samples of the additive-spiked paint were vigorously mixed with a vortex mixer for at least one minute to ensure uniform dispersion of the additive in the paint. […] Studies that use other brands of paint followed the same protocol as described for those using the Olympic® Home interior flat latex paint and Valspar® QuikHide paint.
(§4) Test surfaces were prepared in triplicate. In most cases, the tested conditions were repeated on a different date, again in triplicate. […] Two coats of paint were applied with a polyester brush to completely cover both faces of the filter paper disc, allowing at least four hours drying time between coats.
(§5) Nutrient-Salts Agar (NSA) medium was prepared according to ASTM method G21-13 in 100×15 mm sterile polystyrene petri dishes (VWR® Radnor, Pa.) with a solidified agar layer of about 3 to about 6 mm (⅛ to ¼ in.) in depth. The agar was allowed to solidify for at least 24 hours before being used. The painted test filter paper discs were placed in the center of the agar plates in a biosafety hood while wearing clean nitrile gloves.
(§6) The paint coatings were evaluated against three representative cellulose-supportable fungi: Stachybotrys chartarum, Penicillium chrysogenum, and Alternaria alternata. […] Fungal isolates of Alternaria alternata and Penicillium chrysogenum were obtained from the Plant Pathology and Environmental Microbiology Department at Penn State University.
(§7) A spore suspension of each of these fungi was prepared by pouring a 20-mL portion of autoclaved deionized water containing 0.01% Tween® 20 onto a subculture of each fungal species. Spores were counted with the use of a hemocytometer (Hausser Scientific, Horsham, Pa.) under a compound light microscope. Spore suspensions of Stachybotrys chartarum and Penicillium chrysogenum were diluted to 1×10^6 spores/mL with autoclaved deionized water. Spore suspensions of Alternaria alternata were used “as is” in the range of 200,000 to 400,000 spores/mL.
(§8) Painted test surfaces were inoculated with a spray bottle or with a sterile cotton-tipped applicator. To inoculate the sample with a spray bottle, the spore suspension was sprayed twice on the painted test discs with an autoclaved spray bottle that delivered approximately 0.14 g of fluid per spray. To inoculate the sample with a cotton-tipped applicator, an autoclaved cotton-tipped applicator was submerged in approximately 400 μL of the spore inoculum solution (spore concentrations described above) and applied evenly over the surface of the painted test surface twice. A fresh autoclaved cotton-tipped applicator was used for the application of each painted disc. All the paint studies with Alternaria alternata and Stachybotrys chartarum were inoculated using the spray bottle method. For studies with Penicillium chrysogenum using Olympic® Home paint, the spray bottle inoculation method was used. For studies with Penicillium chrysogenum using Valspar® QuikHide paint, the cotton-tipped applicator inoculation method was used.
(§9) After inoculation, the NSA agar plates were sealed with Parafilm®.

Penicillium chrysogenum = assay: as above; set-up: key: 10 = no defacement, 0 = completely defaced
Experimental: as §1, §2, §3, §4, §5, §6, §7, §8, §9

Alternaria alternata = assay: as above; set-up: key: 10 = no defacement, 0 = completely defaced; conditions: +100 μg/mL in Olympic Home paint
Experimental: as §1, §2, §3, §4, §5, §6, §7, §8, §9

For c1ccc2[nH]c(-c3cscn3)nc2c1 [Thiabendazole], the MIC (Aspergillus fumigatus) was 6.25 µg/mL (≈ 31.1 µM), the “Average defacement rating ± standard deviation” value (Stachybotrys chartarum; 7 days) was 1.3 ± 0.3 and the “Average defacement rating ± standard deviation” value (Stachybotrys chartarum; 14 days) was 0.0 ± 0.0. For the same compound, the “Average defacement rating ± standard deviation” value (Stachybotrys chartarum; 21 days) was 0.0 ± 0.0, the “Average defacement rating ± standard deviation” value (Penicillium chrysogenum; +100 μg/mL in Olympic Home paint, 7 days) was 4.1 ± 0.0 and the “Average defacement rating ± standard deviation” value (Penicillium chrysogenum; +100 μg/mL in Olympic Home paint, 14 days) was 0.4 ± 0.4. The “Average defacement rating ± standard deviation” value (Penicillium chrysogenum; +100 μg/mL in Olympic Home paint, 21 days) was 0.0 ± 0.0, the “Average defacement rating ± standard deviation” value (Penicillium chrysogenum; +200 μg/mL in Olympic Home paint, 7 days) was 9.3 ± 1.2 and the “Average defacement rating ± standard deviation” value (Penicillium chrysogenum; +200 μg/mL in Olympic Home paint, 14 days) was 4.0 ± 4.7. For the same compound, the “Average defacement rating ± standard deviation” value (Penicillium chrysogenum; +200 μg/mL in Olympic Home paint, 21 days) was 1.7 ± 3.6, the “Average defacement rating ± standard deviation” value (Penicillium chrysogenum; +200 μg/mL in Valspar QuikHide paint, 7 days) was 10.0 ± 0.0 and the “Average defacement rating ± standard deviation” value (Penicillium chrysogenum; +200 μg/mL in Valspar QuikHide paint, 14 days) was 9.3 ± 1.2. For the same compound, the “Average defacement rating ± standard deviation” value (Penicillium chrysogenum; +200 μg/mL in Valspar QuikHide paint, 21 days) was 4.7 ± 4.6, the “Average defacement rating ± standard deviation” value (Alternaria alternata; 7 days) was 0.0 ± 0.0 and the “Average defacement rating ± standard deviation” value (Alternaria alternata; 14 days) was 0.0 ± 0.0. For the same compound, the “Average defacement rating ± standard deviation” value (Alternaria alternata; 21 days) was 0.0 ± 0.0.
